Test system: respiratory epithelial cells
Conditions: lot 2 Day 7 AI

## IL-13: human IL-13 (Peprotech, Inc.) added to the medium at 50 ng/mL to stimulate respiratory epithelial cells
  AI770116 (70124_at) expression change: −5.1
  AI798733 (64163_at) expression change: −3.3
  AI829641 (84270_at) expression change: −39.5
  AI917602 (49985_at) expression change: −4.1
  AI923984 33546_at expression change: −4.4
  AI948584 48086_at expression change: −13.1
  AI971023 48539_at expression change: −5.3
  AI984780 (52384_s_at) expression change: −4
  AL040936 (45684_at) expression change: −4.5
  AQP5 32909_at expression change: −4.2
  ARHGEF4 36524_at expression change: −6.6
  ARHV (82231_at) expression change: −4
  AW022213 (79520_at) expression change: −5.4
  AW025596 52634_at expression change: −9
  AW025596 52637_g_at expression change: −20.6
  B4GALT5 56373_at expression change: −2.5
  BPGM (51261_at) expression change: −2.4
  CBLB 514_at expression change: −3.2
  CBLB 35632_at expression change: −2.1
  COL12A1 (44730_at) expression change: −6.8
  CRABP-II 1057_at expression change: −12.7
  CRABP-II 41783_at expression change: −11.3
  Clorf28 50075_at expression change: −5.7
  DHCR24 (74557_s_at) expression change: −6.8
  DKFZp434K1210 44682_at expression change: −2.4
  DREV1 (63813_at) expression change: −2.1
  DSC3 (79615_at) expression change: −2.4
  DSC3a, b 47119_at expression change: −2.7
  DSC3a, b 79615_at expression change: −2.4
  EIF4EBP1 (54152_at) expression change: −2.7
  EVPK 39569_at expression change: −2.7
  FKBP5 (46271_at) expression change: −21.2
  FLJ10298 (62490_f_at) expression change: −5.4
  FLJ10718 52072_at expression change: −8.7
  FLJ12541 43546_at expression change: −7.4
  FLJ20048 (49196_at) expression change: −2
  FLJ20373 54030_at expression change: −1.7
  FLJ20500 43853_at expression change: −2.4
  FLJ23309 45563_f_at expression change: −2.4
  FLJ23516 47534_at expression change: −3.2
  GABRP 40339_at expression change: −28
  GAS41 (64121_at) expression change: −2
  GJA1 32531_at expression change: −5.5
  GK (61873_at) expression change: −2.1
  GPD2 42720_at expression change: −2.8
  GSTA3 58023 at expression change: −9.1
  HEY1 44783_s_at expression change: −9.2
  HIN-1 (46200_at) expression change: −38.7
  HSPC195 44705_at expression change: −5.1
  ID1 36619_r_at expression change: −2.5
  IL20RA 42969_at expression change: −2.9
  IVL 36355_at expression change: −10.6
  K1IAA1102 (64345_s_at) expression change: −4.9
  KCNMA1 (47575_g_at) expression change: −7
  KCNMA1 (53796_at) expression change: −6.1
  KIAA0878 (48793_at) expression change: −2
  KIAA1376 (62972_at) expression change: −3.9
  KIAA1376 (64047_at) expression change: −4.2
  KIAA1547 58531_g_at expression change: −2.6
  KLF7 (42769_at) expression change: −4.7
  KRT6B (62998_at) expression change: −5.5
  LCE 45605_at expression change: −2.6
  LMO4 1452_at expression change: −3.9
  LOC51297 (49616_at) expression change: −24.3
  LOC51297 (55440_at) expression change: −33.7
  LOC51297 (55442_g_at) expression change: −33.7
  LOC51316 (63342_at) expression change: −5
  LOC55893 (64071_at) expression change: −2.6
  LOC129642 (42065_at) expression change: −4.9
  LOC129642 (58288_at) expression change: −4.5
  LOC131177 (43849_s_at) expression change: −13.3
  LOC131177 (45394_s_at) expression change: −7.1
  MGC12536 46924_at expression change: −3.1
  MGC14128 55924_at expression change: −4.1
  MGC14128 (51669_r_at) expression change: −5
  MGC14597 (46030_at) expression change: −5.4
  MGC16207 43412_s_at expression change: −2.8
  MGC16207 (65876_at) expression change: −3.4
  N52554 47432_at expression change: −1.7
  N71183 52473_at expression change: −3
  PR01489 57777_at expression change: −4.5
  PSCA (63958_at) expression change: −9.8
  RGC32 (57044_s_at) expression change: −2.4
  RIN1 1778_g_at expression change: −7.5
  SCNN1B 39682_at expression change: −15
  SCYB14 (65823_at) expression change: −2.5
  SEMA4B (46709_at) expression change: −2.5
  SERPINA3 (75248_at) expression change: −46.4
  SLC11A3 (45826_at) expression change: −3.8
  SLC34A2 (48048_at) expression change: −4.3
  SPON2 52576_s_at expression change: −5.8
  SPRR1B 37160_at expression change: −2.8
  STEAP 40297_at expression change: −3.7
  T52027 (63150_at) expression change: −3.5
  TGFBI (68339_at) expression change: −4.9
  TNFAIP2 (74633_at) expression change: −4.2
  TNNT1 36113_s_at expression change: −12.2
  TNRC3 41246_at expression change: −5
  TPM1 36790_at expression change: −4.8
  TPM1 36791_g_at expression change: −6
  TPM1 36792_at expression change: −6.3
  UCP2 37591_at expression change: −45.5
  UGB 39220_at expression change: −62.8
  VEGFC 1934_s_at expression change: −4.3
  VIM 34091_s_at expression change: −11.6
  W55956 46700_at expression change: −2.7
  W72331 49486 at expression change: −11.4

Reference: patent publication US20050208496A1, “Methods of testing for bronchial asthma or chronic obstructive pulmonary disease” (Genox Research, Inc., priority 2002, published 2005)
